Results on 18 compounds are retold here after patent US10350211B2, “Bumped kinase inhibitor compositions and methods for treating cancer” (UNIVERSITY OF WASHINGTON, priority 2015, dated 2019).

The target of one data set is PKD. Conditions: cited from earlier work.
In data set [1] the test system is prostate cancer AR− as well as AR+ lines. The following applies: cited from earlier work.
Data set [2] deals with other human kinases beyond PKDs, including mutated Src. The following applies: cited from earlier work.
The conditions of data set [3]: cited from earlier work.
The conditions of data set [4]: therapeutic levels cannot be obtained in vivo; cited from earlier work.
The next data set relates to MCF7 cell. The experiment in a line: Breast cancer cell proliferation, MCF7. It is filed as cell-based. Conditions: 72 hours; tested at 0.2, 2, and 20 μM, concentration of the values not given. Here is the method: (§1) MCF7 and MDA231 cell lines were plated at 2000 and 1000 cells/well, respectively. 24 hours later, BKI inhibitor of the disclosure was added to each well at concentrations of 0.2, 2, and 20 μM. After 72 hours, […] was used to measure cell growth.

Another data set has as its system MDA231 cell. As to the kind of experiment: Breast cancer cell proliferation, MDA231. The following applies: 72 hours; tested at 0.2, 2, and 20 μM, concentration of the values not given. It is filed as cell-based. The procedure: as §1
In a further data set the test system is PCa tumor. Conditions: 60 mg/kg, 2× daily; cited from earlier work.

For `CC(C)(C)n1nc(-c2cccc3ccccc23)c2c(N)ncnc21` [Example 1NA-PP1], at PKD, the PKD kinase activity result was “potently blocked”. Also, the “prostate cancer cell growth/proliferation” value in data set [1] is “potently blocked”. Further, in data set [2], the off-target kinases entry was “target other human kinases beyond PKDs, including mutated Src”. Also, in data set [3], the solubility result is listed as “low solubility”. Also, the metabolism entry in data set [4] is “quickly metabolized”.
For `CC(C)(C)n1nc(Cc2cccc3ccccc23)c2c(N)ncnc21` [Example 1NM-PP1], at PKD, the PKD kinase activity entry is “potently blocked”. Also, the “prostate cancer cell growth/proliferation” value in data set [1] is recorded as “potently blocked”. Besides, the off-target kinases result in data set [2] is recorded as “target other human kinases beyond PKDs, including mutated Src”. Besides, the solubility entry in data set [3] is recorded as “low solubility”. Moreover, in data set [4], the metabolism entry is “quickly metabolized”.
`CN1CCC(Cn2nc(-c3ccc4cc(OC5CC5)ccc4c3)c3c(N)ncnc32)CC1` [Example 4, 3-(6-Cyclopropoxynaphthalen-2-yl)-1-((1-methylpiperidin-4-yl)methyl)-1H-pyrazolo[3,4-d]pyrimidin-4-amine]: the “MCF7 cell inhibition (%)” value in the data set with MCF7 cell worked out at 50%. For the same compound, in the data set with MDA231 cell, the “MDA231 cell inhibition (%)” value is 60%.
As for `CCOc1ccc2cc(-c3nn(CC4CCN(C)CC4)c4ncnc(N)c34)ccc2n1` [Example 15, 3-(2-Ethoxyquinolin-6-yl)-1-((1-methylpiperidin-4-yl)methyl)-1H-pyrazolo[3,4-d]pyrimidin-4-amine], the “MCF7 cell inhibition (%)” value in the data set on MCF7 cell worked out at 40%. Also, in the data set on MDA231 cell, the “MDA231 cell inhibition (%)” value is listed as 30%.
The like results for `CN1CCC(Cn2nc(-c3ccc4nc(OCC(F)(F)F)ccc4c3)c3c(N)ncnc32)CC1` [Example 16, 1-((1-Methylpiperidin-4-yl)methyl)-3-(2-(2,2,2-trifluoroethoxy)quinolin-6-yl)-1H-pyrazolo[3,4-d]pyrimidin-4-amine] were, in that order, 50% and 90%.
Consider `CC(C)(O)Cn1nc(-c2ccc3nc(OC4CC4)ccc3c2)c2c(N)ncnc21` [Example 25, 1-(4-Amino-3-(2-cyclopropoxyquinolin-6-yl)-1H-pyrazolo[3,4-d]pyrimidin-1-yl)-2-methylpropan-2-ol], for which, in the data set on MCF7 cell, the “MCF7 cell inhibition (%)” value was 30%. Besides, in the data set with MDA231 cell, the “MDA231 cell inhibition (%)” value is listed as 20%.
Take `CCOc1ccc2ccc(-c3nn(CC4CCNCC4)c4ncnc(N)c34)cc2c1` [Example 51, 3-(7-ethoxynaphthalen-2-yl)-1-(piperidin-4-ylmethyl)-1H-pyrazolo[3,4-d]pyrimidin-4-amine]: the “MCF7 cell inhibition (%)” value in the data set on MCF7 cell worked out at 97%. In the data set on MDA231 cell, the “MDA231 cell inhibition (%)” value was 95%.
On the same counts, the results for `CC(C)(O)Cn1cc(-c2ccc3nc(OC4CC4)ccc3c2)c2c(N)ncnc21` [Example 58, 1-(4-amino-5-(2-cyclopropoxyquinolin-6-yl)-7H-pyrrolo[2,3-d]pyrimidin-7-yl)-2-methylpropan-2-ol] are 50% and 10%.
Consider `Nc1ncnc2c1c(-c1ccc3nc(OC4CC4)ccc3c1)nn2CC1(CO)COC1` [Example 67, (3-((4-amino-3-(2-cyclopropoxyquinolin-6-yl)-1H-pyrazolo[3,4-d]pyrimidin-1-yl)methyl)oxetan-3-yl)methanol], for which the “MCF7 cell inhibition (%)” value in the data set on MCF7 cell turned out to be 40%. In addition, the “MDA231 cell inhibition (%)” value with MDA231 cell came out at 0%.
On to `CCOc1ccc2cc(-c3nn(C4CCN(CC)CC4)c4ncnc(N)c34)ccc2c1` [Example 109, 3-(6-ethoxynaphthalen-2-yl)-1-(1-ethylpiperidin-4-yl)-1H-pyrazolo[3,4-d]pyrimidin-4-amine], for which, in the data set on MCF7 cell, the “MCF7 cell inhibition (%)” value was determined as 50%. The “MDA231 cell inhibition (%)” value in the data set with MDA231 cell came out at 50%.
Regarding `CCOc1ccc2cc(-c3nn(C(C)C)c4ncnc(N)c34)ccc2n1` [Example 110, 3-(2-ethoxyquinolin-6-yl)-1-isopropyl-1H-pyrazolo[3,4-d]pyrimidin-4-amine], the “MCF7 cell inhibition (%)” value in the data set with MCF7 cell came to 30%. The “MDA231 cell inhibition (%)” value in the data set with MDA231 cell was 10%.
On to `CCOc1ccc2cc(-c3nn(C4CCNCC4)c4ncnc(N)c34)ccc2c1` [Example 111, 3-(6-ethoxynaphthalen-2-yl)-1-(piperidin-4-yl)-1H-pyrazolo[3,4-d]pyrimidin-4-amine], for which the “MCF7 cell inhibition (%)” value in the data set on MCF7 cell was found to be 70%. For the same compound, the “MDA231 cell inhibition (%)” value with MDA231 cell is on record as 90%.
Take `CCOc1ccc2cc(-c3nc(CC4CCNCC4)n4ccnc(N)c34)ccc2c1` [Example 120, 1-(6-ethoxynaphthalen-2-yl)-3-(piperidin-4-ylmethyl)imidazo[1,5-a]pyrazin-8-amine]: in the data set with MCF7 cell, the “MCF7 cell inhibition (%)” value is given as 30%. For the same compound, the “MDA231 cell inhibition (%)” value in the data set on MDA231 cell stood at 50%.
The like results for `CCOc1ccc2cc(-c3nn(CC4CCNCC4)c4ncnc(N)c34)ccc2n1` [Example 127, 3-(2-ethoxyquinolin-6-yl)-1-(piperidin-4-ylmethyl)-1H-pyrazolo[3,4-d]pyrimidin-4-amine] were, in that order, 50% and 0%.
The like results for `CCOc1ccc2cc(-c3nn(CC4CCN(C)CC4)c4ncnc(N)c34)ccc2c1` [Example 128] were, in that order, 40% and 50%.
On the same counts, the results for `CCCOc1ccc2cc(-c3nn(CC4CCNCC4)c4ncnc(N)c34)ccc2c1` [Example 129, 1-(piperidin-4-ylmethyl)-3-(6-propoxynaphthalen-2-yl)-1H-pyrazolo[3,4-d]pyrimidin-4-amine] are 75% and 90%.
As for `CC(C)Oc1ccc2cc(-c3nn(CC4CCNCC4)c4ncnc(N)c34)ccc2c1` [Example 130, 3-(6-isopropoxynaphthalen-2-yl)-1-(piperidin-4-ylmethyl)-1H-pyrazolo[3,4-d]pyrimidin-4-amine], the “MCF7 cell inhibition (%)” value with MCF7 cell is 30%. The “MDA231 cell inhibition (%)” value in the data set with MDA231 cell stood at 80%.
In the case of `Fc1ccc(Cl)cc1-c1nc(Nc2ccncc2)c2nccnc2n1` [SD-208], the PKD kinase activity entry on PKD is listed as “potently blocked”. Moreover, in data set [1], the “prostate cancer cell growth/proliferation” value is “potently blocked”. For the same compound, in the data set with PCa tumor, the PCa tumor growth entry was “decrease in PCa tumor growth”.
